Source: patent US10945971B2, “Sphingosine kinase type 1 inhibitors and uses thereof” (Enzo Therapeutics, Inc., priority 2008, dated 2021)

What was measured:
[1] = tested on: U373 cells; assay: Modulation of SK1-I lethality by signaling inhibitors, U373 cells; assay type: cell-based, human; details: U373, combined with SK1-I
Method: (§1) Cells were plated at 10,000 cells/well in 48-well plates and allowed to attach for 24 h. Cell proliferation was measured at the indicated times with WST-1 and absorbance was measured in a plate reader at 450 nm with background subtraction at 630 nm. Cell death was detected by trypan blue exclusion assays in which the percent of blue dye incorporating cells were determined using a light microscope and a hemacytometer as described (Yacoub et al. Mol Cancer Ther 7:314-329, 2008). Apoptotic cell death was measured by staining cell nuclei with the Hoechst dye bisbenzimide and apoptotic cells were identified by condensed, fragmented nuclear regions as described previously (Sankala et al. Cancer Res 67:10466-10474, 2007). A minimum of 300 cells was scored.

[2] = tested on: LN229 cells; assay type: cell-based; details: LN229, combined with SK1-I
Method: as §1

Row | SMILES | effect on SK1-I lethality [1] | effect on SK1-I lethality [2]
1 | Oc1ccc(-c2nc(-c3ccncc3)c(-c3ccc(F)cc3)[nH]2)cc1 [SB202190] | enhanced | enhanced
2 | N#CC(=C(/N)Sc1ccccc1N)/C(C#N)=C(\N)Sc1ccccc1N [U0126] | enhanced | enhanced
